Data reported in patent US4323517A, “Methoxy and methylsulfinylthiolesters” (Troponwerke GmbH & Co. KG, priority 1977, dated 1982).
“Also recorded” adds a separate entry of the source. Like-named read-outs stand apart in the source and are kept apart here.

Assays:
[1] = test system: paw oedemas, caused by the administration of kaolin; experiment: kaolin paw oedema, antiphlogistic action in rats; format: in vivo
Excerpt: The anti-inflammatory action was detected in paw oedemas, caused by the administration of kaolin, in rats.
In addition to the effects described for compound A, it could also be shown that the other derivatives (see Table 2) likewise have a powerful anti-inflammatory action. The minimum doses which still cause a clearly detectable effect on the paw oedema after the administration of kaolin are listed in Table 2.
Rats, kaolin oedema, intramuscularly, n = 10/dose group

rats = conditions: intramuscular
yeast oedema = experiment: yeast oedema; format: in vivo; conditions: im; intramuscularly
Excerpt: (§1) Furthermore, A also has an action on other inflammation models. The ED50 values which follow are found (mg/kg; intramuscularly): formalin oedema 5.4, albumin oedema 6.3, yeast oedema 27.4, concanavalin oedema 3.4 and trypsin oedema 2.0.

trypsin oedema = experiment: trypsin oedema; format: in vivo; conditions: im; intramuscularly
Excerpt: as §1

in vivo = conditions: rat
[2] = comparison of the therapeutic range; conditions: rat, in vivo
kaolin oedema = experiment: comparison of the therapeutic range
concanavalin oedema = experiment: concanavalin oedema; format: in vivo; conditions: im; intramuscularly
Excerpt: as §1

formalin oedema = experiment: formalin oedema; format: in vivo; conditions: im; intramuscularly
Excerpt: as §1

[3] = stomach ulcer (ulcerogenic action) in rats; conditions: rat, in vivo
albumin oedema = experiment: albumin oedema; format: in vivo; conditions: im; intramuscularly
Excerpt: as §1

[4] = test system: paw oedemas, caused by the administration of kaolin; experiment: kaolin paw oedema, antiphlogistic action in rats; format: in vivo; conditions: Rattus norvegicus, read-out: Kaolin oedema ED50
[5] = Rattus norvegicus, im, rats, kaolin oedema, intramuscularly, n = 10/dose group, read-out: Inhibition in % of the controls
[6] = Rattus norvegicus, im, rats, intramuscularly, n = 10/dose group, read-out: ED50 (kaolin oedema)
[7] = po, Therapeutic range LD50 / ED50 kaolin oedema, rats

## CC(C)CSC(=O)CCS(=O)(=O)CC(C)C [(CH3)2 CHCH2 SO2 CH2 CH2 COSCH2 CH(CH3)2, S-Isobutyl 3-isobutylsulphonylpropionothioate]
[1]; [5]
  inhibition in vivo at 12.5 mg/kg: 42%

## CC(C)SCCC(=O)SC(C)C [(CH3)2 CHSCH2 CH2 COSCH(CH3)2, S-Isopropyl 3-isopropylthiopropionothioate]
[1]; [5]
  inhibition in vivo at 25 mg/kg: 63.2%

## CC(C)SC(=O)CC[S+]([O-])C(C)C (centres unmarked) [(CH3)2 CHSOCH2 CH2 COSCH(CH3)2, S-Isopropyl 3-isopropylsulphinylpropionothioate]
[1]; [5]
  inhibition in vivo at 12.5 mg/kg: 22.7%

## CC(C)(C)SCCC(=O)SC(C)(C)C [(CH3)3 CSCH2 CH2 COSC(CH3)3, S-tert.-butyl 3-tert.-butylthiopropionothioate]
[1]; [5]
  inhibition in vivo at 12.5 mg/kg: 23.3%

## CSCCC(=O)SC [A, S-methyl 3-methylthiopropionothioate]
rats
  LD50: 4,587 μmols/kg
Yeast oedema
  ED50: 27.4 mg/kg
Trypsin oedema
  ED50: 2 mg/kg
In vivo; im
  LD50: 4590 µmol/kg
[1]; Rattus norvegicus, im, rats, intramuscular, read-out: Kaolin oedema ED50
  ED50: 4.85 µmol/kg
[1]; rat, in vivo
  antiphlogistic (anti-inflammatory) action, in words: very pronounced antiphlogistic action
[2]
  selectivity ratio: 52.9
[2]; Therapeutic range LD50 / ED50 kaolin oedema, rats, intramuscular
  selectivity ratio: 946
Kaolin oedema; rat, in vivo
  therapeutic range, in words: wide therapeutic range; also recorded: unexpected favourable therapeutic range
Concanavalin oedema
  ED50: 3.4 mg/kg
Formalin oedema
  ED50: 5.4 mg/kg
[3]; im
  TD50: 256 µmol/kg
Albumin oedema
  ED50: 6.3 mg/kg

## CCSCCC(=O)SCC [C2 H5 SCH2 CH2 COSC2 H5, S-Ethyl 3-ethylthiopropionothioate]
[1]; [6]
  ED50: 3.75 mg/kg
[1]; Rattus norvegicus, im, rats, kaolin oedema, intramuscularly, dose 2.50 mg/kg, n = 10/dose group, read-out: Inhibition in % of the controls
  inhibition in vivo at 2.5 mg/kg: 58.2%

## CCCSCCC(=O)SCCC [C3 H7 SCH2 CH2 COSC3 H7, S-Propyl 3-propylthiopropionothioate]
[1]; [5]
  inhibition in vivo at 25 mg/kg: 68.5%

## CCCSC(=O)CC[S+]([O-])CCC (centres unmarked) [C3 H7 SOCH2 CH2 COSC3 H7, S-Propyl 3-propylsulphinylpropionothioate]
[1]; [5]
  inhibition in vivo at 100 mg/kg: 73%

## CCCCSCCC(=O)SCCCC [C4 H9 SCH2 CH2 COSC4 H9, S-Butyl 3-butylthiopropionothioate]
[1]; [5]
  inhibition in vivo at 50 mg/kg: 77.2%

## CCCCSC(=O)CC[S+]([O-])CCCC (centres unmarked) [C4 H9 SOCH2 CH2 COSC4 H9, S-Butyl 3-butylsulphinylpropionothioate]
[1]; [5]
  inhibition in vivo at 100 mg/kg: 73%

## C=C(C)C(=O)SC [CH2 =C(CH3)COSCH3, S-methyl methacrylthioate]
[1]; Rattus norvegicus, im, rats, kaolin oedema, intramuscularly, dose 5.00 mg/kg, n = 10/dose group, read-out: Inhibition in % of the controls
  inhibition in vivo at 5 mg/kg: 21.8%

## C=CC(=O)SCC [CH2 =CHCOSC2 H5, S-ethyl acrylthioate]
[1]; [6]
  ED50: 1.5 mg/kg
[1]; Rattus norvegicus, im, rats, kaolin oedema, intramuscularly, dose 0.32 mg/kg, n = 10/dose group, read-out: Inhibition in % of the controls
  inhibition in vivo at 0.32 mg/kg: 18.5%

## CC=CC(=O)SC [CH3 CH=CHCOSCH3, S-methyl crotonylthioate]
[1]; [5]
  inhibition in vivo at 12.5 mg/kg: 16%

## CCOC(=O)CCSC [CH3 SCH2 CH2 COOC2 H5, Ethyl 3-methylthiopropionate]
[1]; [5]
  inhibition in vivo at 25 mg/kg: 16%

## CSCC(C)C(=O)SC (centres unmarked) [CH3 SCH2 CH(CH3)COSCH3, S-methyl 3-methylthio-2-propylcarbonylthioate]
[1]; [6]
  ED50: 4.5 mg/kg
[1]; Rattus norvegicus, im, rats, kaolin oedema, intramuscularly, dose 0.65 mg/kg, n = 10/dose group, read-out: Inhibition in % of the controls
  inhibition in vivo at 0.65 mg/kg: 16.6%

## CSC(=O)CC[S+](C)[O-] (centres unmarked) [CH3 SOCH2 CH2 COSCH3, S-Methyl 3-methylsulphinylpropionothioate]
[1]; [6]
  ED50: 1.8 mg/kg
[1]; Rattus norvegicus, im, rats, kaolin oedema, intramuscularly, dose 3.12 mg/kg, n = 10/dose group, read-out: Inhibition in % of the controls
  inhibition in vivo at 3.12 mg/kg: 10.2%

## O=C(O)c1ccccc1Nc1cccc(C(F)(F)F)c1 [Flufenamic acid]
In vivo; po
  LD50: 2040 µmol/kg
[2]; [7]
  selectivity ratio: 56.3
Kaolin oedema; rats, oral
  Therapeutic range ED50 ulcer / ED50 kaolin oedema: 1.52
[4]; rats, oral
  ED50: 36.2 µmol/kg
[3]; po
  TD50: 55.1 µmol/kg

## O=C(O)CCS [HSCH2 CH2 COOH, 3-mercaptopropionic acid]
[1]; Rattus norvegicus, im, rats, kaolin oedema, intramuscularly, dose 20.00 mg/kg, n = 10/dose group, read-out: Inhibition in % of the controls
  inhibition in vivo at 20 mg/kg: 8.5%

## COc1ccc2c(c1)c(CC(=O)O)c(C)n2C(=O)c1ccc(Cl)cc1 [Indometacin]
In vivo; po
  LD50: 68 µmol/kg
[2]; po, Therapeutic range ED50 ulcer / ED50 kaolin oedema, rats
  selectivity ratio: 3.81
[2]; [7]
  selectivity ratio: 23.4
[4]; po
  ED50: 2.9 µmol/kg
[3]; rats, oral, read-out: Stomach ulcer ED50
  TD50: 11.1 µmol/kg

## CCCCC1C(=O)N(c2ccccc2)N(c2ccccc2)C1=O [Phenylbutazone]
[4]; rats, oral
  ED50: 122 µmol/kg
[3]; po
  TD50: 182 µmol/kg

## CC(C)CSCCC(=O)SCC(C)C [S-Isobutyl 3-isobutylthiopropionothioate]
[1]; [5]
  inhibition in vivo at 50 mg/kg: 77.2%

## CC(C)CSC(=O)CC[S+]([O-])CC(C)C (centres unmarked) [S-isobutyl 3-isobutylsulphinylpropionothioate]
[1]; [5]
  inhibition in vivo at 12.5 mg/kg: 17.9%

## CCC(C)SC(=O)CC[S+]([O-])C(C)CC (centres unmarked) [S-sec.-Butyl 3-sec.-butylsulphinylpropionothioate]
[1]; [5]
  inhibition in vivo at 100 mg/kg: 90.5%

## CCC(C)SC(=O)CCS(=O)(=O)C(C)CC (centres unmarked) [S-sec.-Butyl 3-sec.-butylsulphonylpropionothioate]
[1]; [5]
  inhibition in vivo at 12.5 mg/kg: 33%

## CCC(C)SCCC(=O)SC(C)CC (centres unmarked) [S-sec.-Butyl 3-sec.-butylthiopropionothioate]
[1]; [5]
  inhibition in vivo at 50 mg/kg: 72%
